According to patent US8415469B2, “Compounds and methods for kinase modulation, and indications therefor” (Plexxikon Inc., priority 2005, dated 2013):

Assays:
Type in all cases: biochemical
Ret = molecular target: T1, Ret (Homo sapiens, UniProt P07949); assay: AlphaScreen kinase assay, Ret; settings: read-out: IC50, activity toward kinase Ret
T1 construct: P1378.pET-SF BI-PTP RET H661-R1012 HIS; made in house
T1 sequence (P07949 with tags, fused parts or gaps): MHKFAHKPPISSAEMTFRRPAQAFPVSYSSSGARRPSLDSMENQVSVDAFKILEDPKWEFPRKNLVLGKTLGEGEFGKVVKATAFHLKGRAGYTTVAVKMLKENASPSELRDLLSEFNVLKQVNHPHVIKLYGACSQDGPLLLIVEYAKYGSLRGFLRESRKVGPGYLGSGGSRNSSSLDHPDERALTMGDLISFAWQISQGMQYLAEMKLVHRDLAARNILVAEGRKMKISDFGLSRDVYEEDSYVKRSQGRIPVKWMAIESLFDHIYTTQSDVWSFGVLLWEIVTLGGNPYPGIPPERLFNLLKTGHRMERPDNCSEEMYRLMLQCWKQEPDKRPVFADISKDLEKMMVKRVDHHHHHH

FGFR1 = molecular target: T2, FGFR1 (Homo sapiens, UniProt P11362, C488A/C584S); assay: AlphaScreen kinase assay, FGFR1; settings: read-out: IC50, activity toward kinase FGFR
T2 construct: P1351.pET N6 BI-PTP FGFR A458-E765-X C488A, C584S; made in house; host or cells: E. coli (PTP1B co-expressed)

B-Raf V600E = molecular target: T3, B-Raf V600E (Homo sapiens, UniProt P15056, V600E); assay: AlphaScreen kinase assay, B-Raf V600E; settings: read-out: IC50, activity toward kinase B-Raf V600E
T3 construct: P4254. pFastBacBD-CDC37 BRAF D437-K722-X, V600E; His6 with pFastBac HT leader (TEV site) (N); made in house; host or cells: Sf9 (baculovirus; chaperone CDC37 co-expressed)

Jnk3 = molecular target: T4, Jnk3 (Homo sapiens, UniProt P53779); assay: AlphaScreen kinase assay, Jnk3; settings: read-out: IC50, activity toward kinase Jnk3
T4 construct: purchased Upstate Biotechnology

B-Raf = molecular target: T5, B-Raf (Homo sapiens, UniProt P15056); assay: AlphaScreen kinase assay, B-Raf; settings: read-out: IC50, activity toward kinase B-Raf
T5 construct: purchased Upstate Biotechnology

c-Raf-1 = molecular target: T6, c-Raf-1 (Homo sapiens, UniProt P04049); assay: AlphaScreen kinase assay, c-Raf-1; settings: read-out: IC50, activity toward kinase c-Raf-1
T6 construct: purchased Upstate Biotechnology

Kit = molecular target: T7, Kit (Homo sapiens, UniProt P10721); assay: AlphaScreen kinase assay, Kit; settings: read-out: IC50, activity toward kinase Kit
T7 construct: P1332.N6 BI PTP KIT M552-K948-X COD; His6 (N); made in house; host or cells: E. coli (PTP1B co-expressed)

Fms = molecular target: T8, Fms (Homo sapiens, UniProt P07333); assay: AlphaScreen kinase assay, Fms; settings: read-out: IC50, activity toward kinase Fms
T8 construct: purchased Upstate Biotechnology

Flt1 = molecular target: T9, Flt1 (Homo sapiens, UniProt P17948); assay: AlphaScreen kinase assay, Flt1; settings: read-out: IC50, activity toward kinase Flt1
T9 construct: P1826.pETN6 BI-PTP FLT1 M799-D1165-X WT; His6 (N); made in house; host or cells: E. coli (PTP1B co-expressed)
T9 sequence (P17948 with tags, fused parts or gaps): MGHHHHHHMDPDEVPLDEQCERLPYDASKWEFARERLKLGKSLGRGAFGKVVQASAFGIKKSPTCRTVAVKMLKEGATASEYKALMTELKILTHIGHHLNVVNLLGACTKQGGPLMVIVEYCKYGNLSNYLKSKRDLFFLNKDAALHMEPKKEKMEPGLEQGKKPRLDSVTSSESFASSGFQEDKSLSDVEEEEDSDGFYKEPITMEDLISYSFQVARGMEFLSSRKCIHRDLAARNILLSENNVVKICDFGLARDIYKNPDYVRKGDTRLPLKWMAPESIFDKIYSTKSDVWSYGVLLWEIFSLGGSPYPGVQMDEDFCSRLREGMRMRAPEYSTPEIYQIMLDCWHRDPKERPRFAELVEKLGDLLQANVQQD

Jnk1 = molecular target: T10, Jnk1 (Homo sapiens, UniProt P45983); assay: AlphaScreen kinase assay, Jnk1; settings: read-out: IC50, activity toward kinase Jnk1
T10 construct: purchased Upstate Biotechnology

Kdr = molecular target: T11, Kdr (Homo sapiens, UniProt P35968); assay: Z'-Lyte FRET kinase assay (Invitrogen), Kdr; settings: read-out: IC50, activity toward kinase Kdr
T11 construct: purchased Invitrogen (assay run by Invitrogen)

Measured: IC50

T11 sequence (P35968 20-1356): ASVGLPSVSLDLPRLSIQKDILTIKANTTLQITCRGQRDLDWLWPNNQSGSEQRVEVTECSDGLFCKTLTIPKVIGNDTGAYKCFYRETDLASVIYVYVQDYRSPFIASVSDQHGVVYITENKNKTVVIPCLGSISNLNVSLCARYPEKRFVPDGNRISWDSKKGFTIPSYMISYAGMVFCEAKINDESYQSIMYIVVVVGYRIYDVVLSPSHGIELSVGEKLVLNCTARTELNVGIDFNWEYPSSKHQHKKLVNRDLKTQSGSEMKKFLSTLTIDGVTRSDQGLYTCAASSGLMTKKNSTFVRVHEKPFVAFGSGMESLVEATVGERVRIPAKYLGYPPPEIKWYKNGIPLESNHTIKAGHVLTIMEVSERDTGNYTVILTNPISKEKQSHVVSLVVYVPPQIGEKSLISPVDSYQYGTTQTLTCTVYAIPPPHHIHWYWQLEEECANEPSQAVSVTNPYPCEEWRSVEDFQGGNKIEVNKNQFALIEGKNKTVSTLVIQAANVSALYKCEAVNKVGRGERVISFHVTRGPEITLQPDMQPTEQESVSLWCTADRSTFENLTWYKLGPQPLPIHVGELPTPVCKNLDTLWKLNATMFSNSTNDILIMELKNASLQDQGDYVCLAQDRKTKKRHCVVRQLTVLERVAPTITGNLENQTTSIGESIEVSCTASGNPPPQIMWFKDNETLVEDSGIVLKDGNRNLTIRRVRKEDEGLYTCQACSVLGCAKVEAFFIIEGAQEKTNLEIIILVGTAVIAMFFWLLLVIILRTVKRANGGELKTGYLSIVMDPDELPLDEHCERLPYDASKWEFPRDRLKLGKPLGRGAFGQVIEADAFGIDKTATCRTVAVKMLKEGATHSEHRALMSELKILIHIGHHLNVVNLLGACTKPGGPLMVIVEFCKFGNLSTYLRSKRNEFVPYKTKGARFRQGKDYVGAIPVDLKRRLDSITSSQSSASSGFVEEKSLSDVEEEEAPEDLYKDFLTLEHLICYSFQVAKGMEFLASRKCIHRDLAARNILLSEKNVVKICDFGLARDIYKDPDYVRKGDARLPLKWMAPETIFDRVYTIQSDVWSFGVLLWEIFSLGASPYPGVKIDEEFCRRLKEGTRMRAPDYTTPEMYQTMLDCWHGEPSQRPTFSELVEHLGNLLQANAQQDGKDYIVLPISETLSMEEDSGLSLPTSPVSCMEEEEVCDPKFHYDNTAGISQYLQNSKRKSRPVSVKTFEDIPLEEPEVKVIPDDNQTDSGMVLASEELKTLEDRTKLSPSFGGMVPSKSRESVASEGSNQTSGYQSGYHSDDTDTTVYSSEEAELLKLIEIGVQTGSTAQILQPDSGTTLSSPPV
T2 sequence (P11362 458-765 C488A/C584S): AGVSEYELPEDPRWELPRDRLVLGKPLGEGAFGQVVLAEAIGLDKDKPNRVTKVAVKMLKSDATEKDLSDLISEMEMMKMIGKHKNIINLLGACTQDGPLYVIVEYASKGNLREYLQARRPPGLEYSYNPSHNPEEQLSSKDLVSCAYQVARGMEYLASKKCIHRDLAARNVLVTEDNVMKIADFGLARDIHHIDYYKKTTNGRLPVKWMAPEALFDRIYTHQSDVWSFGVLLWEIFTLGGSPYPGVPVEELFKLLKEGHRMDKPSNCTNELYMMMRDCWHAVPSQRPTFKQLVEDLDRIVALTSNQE
T5 sequence (P15056 whole entry): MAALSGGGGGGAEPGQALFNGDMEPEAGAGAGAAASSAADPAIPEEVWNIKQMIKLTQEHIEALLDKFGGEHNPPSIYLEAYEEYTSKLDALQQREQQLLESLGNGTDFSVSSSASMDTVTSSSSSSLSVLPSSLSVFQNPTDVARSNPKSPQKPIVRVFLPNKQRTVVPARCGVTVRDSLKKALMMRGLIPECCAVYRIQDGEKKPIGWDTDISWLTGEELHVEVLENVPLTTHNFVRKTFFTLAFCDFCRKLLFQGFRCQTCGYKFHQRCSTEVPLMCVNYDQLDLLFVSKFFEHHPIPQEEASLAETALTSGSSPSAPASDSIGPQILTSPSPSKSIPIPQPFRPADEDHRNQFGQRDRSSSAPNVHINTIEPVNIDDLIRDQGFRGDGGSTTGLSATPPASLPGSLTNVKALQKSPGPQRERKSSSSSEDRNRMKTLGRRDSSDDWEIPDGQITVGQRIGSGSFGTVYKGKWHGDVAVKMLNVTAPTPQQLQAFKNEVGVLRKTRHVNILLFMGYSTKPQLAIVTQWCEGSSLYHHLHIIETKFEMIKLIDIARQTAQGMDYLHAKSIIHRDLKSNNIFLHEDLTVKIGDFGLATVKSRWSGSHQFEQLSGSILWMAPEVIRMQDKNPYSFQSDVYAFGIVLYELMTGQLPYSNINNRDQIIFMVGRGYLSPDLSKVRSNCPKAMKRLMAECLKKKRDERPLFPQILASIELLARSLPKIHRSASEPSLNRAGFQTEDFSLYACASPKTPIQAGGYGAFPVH
T7 sequence (P10721 with tags, fused parts or gaps): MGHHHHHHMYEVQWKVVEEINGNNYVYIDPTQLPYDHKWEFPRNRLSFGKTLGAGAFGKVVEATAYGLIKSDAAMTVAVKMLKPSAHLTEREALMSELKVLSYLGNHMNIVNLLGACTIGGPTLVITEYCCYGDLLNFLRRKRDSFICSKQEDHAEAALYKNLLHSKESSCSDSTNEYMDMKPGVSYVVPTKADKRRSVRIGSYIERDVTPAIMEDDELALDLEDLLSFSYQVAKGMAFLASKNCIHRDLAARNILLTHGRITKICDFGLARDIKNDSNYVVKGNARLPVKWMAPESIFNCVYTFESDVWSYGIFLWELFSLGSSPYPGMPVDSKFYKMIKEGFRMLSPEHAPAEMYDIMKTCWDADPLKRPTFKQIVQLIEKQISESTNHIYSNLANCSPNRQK
T3 sequence (P15056 with tags, fused parts or gaps V600E): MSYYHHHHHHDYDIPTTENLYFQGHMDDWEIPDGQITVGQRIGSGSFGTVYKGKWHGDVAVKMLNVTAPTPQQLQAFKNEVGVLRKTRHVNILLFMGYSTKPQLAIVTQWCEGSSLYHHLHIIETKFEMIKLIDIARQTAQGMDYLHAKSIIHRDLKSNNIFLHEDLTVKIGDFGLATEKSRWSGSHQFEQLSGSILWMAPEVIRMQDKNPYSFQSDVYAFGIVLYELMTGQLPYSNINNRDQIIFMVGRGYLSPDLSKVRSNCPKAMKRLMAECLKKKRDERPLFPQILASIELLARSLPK
T10 sequence (P45983 whole entry): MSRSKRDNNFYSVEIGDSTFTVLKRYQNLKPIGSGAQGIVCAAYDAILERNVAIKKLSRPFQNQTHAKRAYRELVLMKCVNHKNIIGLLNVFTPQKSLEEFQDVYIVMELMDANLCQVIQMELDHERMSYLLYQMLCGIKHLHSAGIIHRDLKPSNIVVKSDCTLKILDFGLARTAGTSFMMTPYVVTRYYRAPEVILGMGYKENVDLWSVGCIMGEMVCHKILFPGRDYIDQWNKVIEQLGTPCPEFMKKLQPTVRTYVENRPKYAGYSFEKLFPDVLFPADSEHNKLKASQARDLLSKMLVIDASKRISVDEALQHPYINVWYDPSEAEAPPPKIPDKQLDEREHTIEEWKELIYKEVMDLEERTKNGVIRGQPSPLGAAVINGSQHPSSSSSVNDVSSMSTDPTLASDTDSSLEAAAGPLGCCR
T4 sequence (P53779 whole entry): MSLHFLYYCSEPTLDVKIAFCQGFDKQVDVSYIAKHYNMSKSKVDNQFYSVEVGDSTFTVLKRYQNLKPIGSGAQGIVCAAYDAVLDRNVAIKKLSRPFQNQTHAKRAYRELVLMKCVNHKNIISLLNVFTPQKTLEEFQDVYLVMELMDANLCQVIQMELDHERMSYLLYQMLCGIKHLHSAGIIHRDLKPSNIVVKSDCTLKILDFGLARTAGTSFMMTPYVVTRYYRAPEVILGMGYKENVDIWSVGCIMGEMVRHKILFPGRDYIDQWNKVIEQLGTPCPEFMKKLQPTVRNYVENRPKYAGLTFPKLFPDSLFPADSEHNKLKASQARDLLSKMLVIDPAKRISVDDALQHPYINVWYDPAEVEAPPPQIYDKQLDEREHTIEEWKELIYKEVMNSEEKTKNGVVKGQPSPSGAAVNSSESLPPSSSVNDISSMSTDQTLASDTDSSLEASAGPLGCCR
T8 sequence (P07333 20-972): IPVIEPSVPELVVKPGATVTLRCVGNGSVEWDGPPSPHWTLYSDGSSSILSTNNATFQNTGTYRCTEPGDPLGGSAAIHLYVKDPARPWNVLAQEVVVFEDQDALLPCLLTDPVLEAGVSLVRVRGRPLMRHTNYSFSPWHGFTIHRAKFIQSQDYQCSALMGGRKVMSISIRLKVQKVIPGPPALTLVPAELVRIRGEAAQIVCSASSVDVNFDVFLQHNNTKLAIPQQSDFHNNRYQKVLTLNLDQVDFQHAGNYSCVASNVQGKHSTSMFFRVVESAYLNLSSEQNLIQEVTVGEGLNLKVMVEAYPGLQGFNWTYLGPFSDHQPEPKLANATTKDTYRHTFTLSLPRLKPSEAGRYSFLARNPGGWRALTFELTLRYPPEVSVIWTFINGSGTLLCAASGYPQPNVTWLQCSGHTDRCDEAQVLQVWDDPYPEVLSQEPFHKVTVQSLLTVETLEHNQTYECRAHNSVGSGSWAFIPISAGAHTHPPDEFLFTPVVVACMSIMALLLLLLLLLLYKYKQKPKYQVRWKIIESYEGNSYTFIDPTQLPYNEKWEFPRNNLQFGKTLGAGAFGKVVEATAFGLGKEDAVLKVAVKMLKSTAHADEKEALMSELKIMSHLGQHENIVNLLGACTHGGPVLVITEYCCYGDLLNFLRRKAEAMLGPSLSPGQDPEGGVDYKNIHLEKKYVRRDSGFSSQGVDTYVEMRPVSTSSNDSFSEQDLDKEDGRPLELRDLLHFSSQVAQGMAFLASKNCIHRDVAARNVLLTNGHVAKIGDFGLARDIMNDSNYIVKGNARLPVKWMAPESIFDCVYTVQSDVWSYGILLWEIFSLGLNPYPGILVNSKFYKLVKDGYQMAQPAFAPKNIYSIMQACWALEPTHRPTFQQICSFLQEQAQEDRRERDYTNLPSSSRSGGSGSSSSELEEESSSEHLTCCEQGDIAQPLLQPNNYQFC

Oc1cccc(C(O)c2c[nH]c3ncc(-c4cccs4)cc23)c1 (stereo not drawn) [Compound P-0710]
≤ 10 µM: Ret | FGFR1 | B-Raf V600E | Jnk3

O=C(Nc1cccc(C(=O)c2c[nH]c3ncccc23)c1)Nc1ccc(C(F)(F)F)cc1Cl [Compound P-1713, 1-(2-Chloro-4-trifluoromethyl-phenyl)-3-[3-(1H-pyrrolo[2,3-b]pyridine-3-carbonyl)-phenyl]-urea]
≤ 10 µM: B-Raf | c-Raf-1 | Kit | B-Raf V600E | Fms | Jnk3

c1cncc(-c2cnc3[nH]cc(Cc4ccc5c(c4)OCCO5)c3c2)c1 [Compound P-1529, 3-(2,3-Dihydro-benzo[1,4]dioxin-6-ylmethyl)-5-pyridin-3-yl-1H-pyrrolo[2,3-b]pyridine]
not listed: Ret | c-Raf-1 | Jnk1 | Kdr
≤ 10 µM: all other assays above

CCCS(=O)(=O)Nc1cccc(C(=O)c2c[nH]c3ncc(-c4cccnc4)cc23)c1 [Compound P-1638]
≤ 10 µM: Jnk1 | B-Raf | B-Raf V600E | Fms

COc1cnc2[nH]cc(Sc3ccccn3)c2c1 [Compound P-1561]
≤ 10 µM: FGFR1 | B-Raf V600E | Jnk3

CCCCNC(=O)Nc1ccc(F)c(C(=O)c2c[nH]c3ncc(Br)cc23)c1 [Compound P-1637, 1-[3-(5-Bromo-1H-pyrrolo[2,3-b]pyridine-3-carbonyl)-4-fluoro-phenyl]-3-butyl-urea]
≤ 10 µM: Jnk1 | B-Raf | B-Raf V600E | Fms

c1csc(-c2ccnc3[nH]ccc23)c1 [Compound P-0431]
≤ 10 µM: Jnk1

Cc1cc(C(=O)c2c[nH]c3ncc(-c4ccsc4)cc23)no1 [Compound P-0640]
≤ 10 µM: Kdr | Ret | FGFR1 | Flt1 | Kit | Jnk3

COc1ccc(F)c(C(=O)c2c[nH]c3ncccc23)c1 [Compound P-0103]
≤ 10 µM: Kdr | Ret | FGFR1 | Flt1 | Kit | Fms

O=C(c1ccccc1O)c1c[nH]c2ncc(-c3cccs3)cc12 [Compound P-0757]
≤ 10 µM: Ret | Flt1 | Kit | Jnk3

O=C(Nc1ccc(F)cc1)Nc1cccc(C(=O)c2c[nH]c3ncccc23)c1 [Compound P-1704, 1-(4-Fluoro-phenyl)-3-[3-(1H-pyrrolo[2,3-b]pyridine-3-carbonyl)-phenyl]-urea]
≤ 10 µM: B-Raf | Kit | B-Raf V600E | Fms | Jnk3

O=C(c1ccc(-c2cnc3[nH]ccc3c2)cc1)N1CCCC1 [Compound P-0625]
≤ 10 µM: Kit | Jnk3

c1ccc2sc(-c3cnc4[nH]ccc4c3)cc2c1 [Compound P-1087]
≤ 10 µM: Jnk3

CCCCNC(=O)Nc1ccc(F)c(C(=O)c2c[nH]c3ncc(-c4cccc(OC(F)(F)F)c4)cc23)c1 [Compound P-1660, 1-Butyl-3-{4-fluoro-3-[5-(3-trifluoromethoxy-phenyl)-1H-pyrrolo[2,3-b]pyridine-3-carbonyl]-phenyl}-urea]
≤ 10 µM: Jnk1 | B-Raf | B-Raf V600E | Fms

Oc1ccc(Cc2c[nH]c3ncc(-c4ccsc4)cc23)cc1O [Compound P-0683]
not listed: c-Raf-1 | Fms | Jnk1
≤ 10 µM: all other assays above

O=C(c1ccccc1O)c1c[nH]c2ncc(Br)cc12 [Compound P-0263]
≤ 10 µM: Kit | Jnk3

NC(=O)c1ccc(-c2cnc3[nH]ccc3c2)cc1 [Compound P-0659]
≤ 10 µM: Ret | Kit | Jnk3

CC(=O)Nc1cccc(Nc2cnc3[nH]ccc3c2)c1 [Compound P-1032]
≤ 10 µM: Jnk3

CCCS(=O)(=O)Nc1cccc(C(=O)c2c[nH]c3ncc(-c4cccnc4)cc23)c1C [Compound P-1631]
≤ 10 µM: Jnk1 | B-Raf | B-Raf V600E | Fms

OC(c1ccc(OCc2nc3ccccc3[nH]2)c(F)c1)c1c[nH]c2ncccc12 (stereo not drawn) [Compound P-1898]
≤ 10 µM: Jnk1

O=C(Nc1cccc(F)c1)Nc1cccc(C(=O)c2c[nH]c3ncccc23)c1 [Compound P-1716, 1-(3-Fluoro-phenyl)-3-[3-(1H-pyrrolo[2,3-b]pyridine-3-carbonyl)-phenyl]-urea]
≤ 10 µM: B-Raf | B-Raf V600E | Fms | Jnk3

COc1cccc(Nc2c[nH]c3ncccc23)c1 [Compound P-1490, (3-Methoxy-phenyl)-(1H-pyrrolo[2,3-b]pyridin-3-yl)-amine]
≤ 10 µM: Kit | Fms | Jnk3

O=C(Nc1ccccc1)Nc1cccc(C(=O)c2c[nH]c3ncccc23)c1 [Compound P-1703, 1-Phenyl-3-[3-(1H-pyrrolo[2,3-b]pyridine-3-carbonyl)-phenyl]-urea]
≤ 10 µM: B-Raf | Kit | B-Raf V600E | Fms | Jnk3

CCCS(=O)(=O)Nc1cccc(C(=O)c2c[nH]c3ncc(-c4ccc(F)cc4)cc23)c1 [Compound P-1639]
≤ 10 µM: Jnk1 | B-Raf | B-Raf V600E | Fms

COc1cccc(C(=O)c2c[nH]c3ncc(-c4ccccc4)cc23)c1 [Compound P-0371]
≤ 10 µM: Ret | FGFR1 | Flt1 | Kit | Jnk3

COc1ccc(NC(=O)Nc2cccc(C(=O)c3c[nH]c4ncc(-c5cccnc5)cc34)c2)cc1OC [Compound P-1725, 1-(3,4-Dimethoxy-phenyl)-3-[3-(5-pyridin-3-yl-1H-pyrrolo[2,3-b]pyridine-3-carbonyl)-phenyl]-urea]
≤ 10 µM: Jnk1 | B-Raf | B-Raf V600E | Fms

Cc1ccc(S(=O)(=O)Nc2ccc(F)c(C(=O)c3c[nH]c4ncc(Cl)cc34)c2F)cc1 [Compound P-1842, N-[3-(5-Chloro-1H-pyrrolo[2,3-b]pyridine-3-carbonyl)-2,4-difluoro-phenyl]-4-methyl-benzenesulfonamide]
≤ 10 µM: Jnk1 | B-Raf | B-Raf V600E

Clc1ccc(-c2cnc3[nH]ccc3c2)s1 [Compound P-1088]
≤ 10 µM: Jnk3

COc1ccc(Nc2ccc3cc[nH]c3n2)cc1 [Compound P-1355, (4-Methoxy-phenyl)-(1H-pyrrolo[2,3-b]pyridin-6-yl)-amine]
≤ 10 µM: Jnk3

c1ccc(COc2ccccc2Nc2c[nH]c3ncccc23)cc1 [Compound P-1505, (2-Benzyloxy-phenyl)-(1H-pyrrolo[2,3-b]pyridin-3-yl)-amine]
≤ 10 µM: Flt1 | Kit | B-Raf V600E | Fms | Jnk3

Clc1cccc(Nc2c[nH]c3ncccc23)c1 [Compound P-1489, (3-Chloro-phenyl)-(1H-pyrrolo[2,3-b]pyridin-3-yl)-amine]
≤ 10 µM: Kit | Fms | Jnk3
